From patent US12398255B2, “Biocompatible crosslinkers for controlled degradation of polymer hydrogels” (Saint Louis University, priority 2020, dated 2025)

Assay: Hydrogel degradation measured by swelling
Format: physicochemical
Conditions: pH 7.4
Description: Additionally, degradation was followed by measuring QM as a function of time. MS was measured at specific time points until gels lacked physical integrity. QM was calculated for each time point and normalized to the QM of the non-swollen network at time zero (MG/MD). Initial mesh size (ξ) and crosslink density (vc) were calculated via the Flory-[…] theory.

## PEG-dithiolpropionate [PEG-DD2]
  Degradation Time: 8.0 ± 0.5 days
